Laboratory results: PMC9481151, “Discovery of new symmetrical and asymmetrical nitrile-containing 1,4-dihydropyridine derivatives as dual kinases and P-glycoprotein inhibitors: synthesis, in vitro assays, and in silico studies” (Journal of Enzyme Inhibition and Medicinal Chemistry, 2022)
Values after ≈ are worked out from the molar mass of the structure shown.

Key:
NCI-H226 = assay: NCI single dose (10 µM) SRB screen; type: cell-based, human; settings: non-small cell lung cancer, 48 h
HT29 = assay: NCI single dose (10 µM) SRB screen; type: cell-based, human; settings: colon cancer, 48 h
KM12 = assay: NCI single dose (10 µM) SRB screen; type: cell-based, human; settings: colon cancer, 48 h
SK-MEL-2 = assay: NCI single dose (10 µM) SRB screen; type: cell-based, human; settings: melanoma, 48 h
SK-MEL-5 = assay: NCI single dose (10 µM) SRB screen; type: cell-based, human; settings: melanoma, 48 h
IGROV1 = assay: NCI single dose (10 µM) SRB screen; type: cell-based, human; settings: ovarian cancer, 48 h
OVCAR-5 = assay: NCI single dose (10 µM) SRB screen; type: cell-based, human; settings: ovarian cancer, 48 h
ACHN = assay: NCI single dose (10 µM) SRB screen; type: cell-based, human; settings: renal cancer, 48 h
CAKI-1 = assay: NCI single dose (10 µM) SRB screen; type: cell-based, human; settings: renal cancer, 48 h
TK-10 = assay: NCI single dose (10 µM) SRB screen; type: cell-based, human; settings: renal cancer, 48 h
HS578T = assay: NCI single dose (10 µM) SRB screen; type: cell-based, human; settings: breast cancer, 48 h
[1] = test system: drug-resistant HCT-116/ADR cells; assay: Potentiation of DOX cytotoxicity (reversal DOX effect, P-gp modulation); type: cell-based, human; settings: IC50 (DOX) without modulator / IC50 (DOX) with modulator
EGFR = EGFR (Homo sapiens, UniProt P00533); assay: EGFR kinase inhibitory activity; type: biochemical; settings: for EGFR Potency: (IC50 lapatinib/IC50 Compound)*100; for IC50: read-out: EGFR IC50 ± SD
HER-2 = HER-2 (Homo sapiens, UniProt P04626); assay: HER-2 kinase inhibitory activity; type: biochemical; settings: for HER-2 Potency: (IC50 lapatinib/IC50 Compound)*100; for IC50: read-out: HER-2 IC50 ± SD
BTK = BTK (Homo sapiens, UniProt Q06187); assay: BTK inhibitory activity; type: biochemical; settings: for BTK Potency: (IC50 lapatinib/IC50 Compound)*100; for IC50: read-out: BTK IC50 ± SD
HCT-116 cells [2] = assay: Annexin V–FITC apoptosis assay; type: cell-based, human; settings: HCT-116, 10 µM, 24 h
Source text: Apoptosis induction is the most important mechanism by chemotherapeutics killing tumour cells.[62]^,[63] Phosphatidylserine (PS) is translocated from the inside to the outside of the plasma membrane during apoptosis, causing cellular alterations. Annexin-V binds to PS and can be employed as a sensitive probe on the plasma membrane’s outer side.[64]^,[65]
PS externalisation was identified using the apoptosis detection kit (Annexin V-FITC/PI) (BD Biosciences) in accordance with the manufacturer’s guidelines.[79]

HCT-116 cells [3] = assay: In vitro cell cycle analysis (DNA flow cytometry); type: cell-based, human; settings: HCT-116, 24 h, IC50 concentrations
Procedure: Targeting the cancer cell cycle has been developed as a encouraging approach for cancer therapy.[66]
The cells were centrifuged, frozen in cold 75% ethanol, washed in phosphate buffered saline, resuspended with […] RNase, then stained with […] PI, and analysed with a FACS Calibur (Becton Dickinson, BD, Franklin Lakes, NJ). The cell cycle distributions were determined using Becton Dickinson’s CellQuest software version 5.1.[80]

HCT-116/ADR cells = assay: cells; settings: Homo sapiens, HCT-116, read-out: Cytotoxicity IC50, HCT-116/ADR
HCT-116 cells [4] = assay: In vitro cytotoxicity; settings: Homo sapiens, HCT-116, read-out: Cytotoxicity IC50, HCT-116
Escherichia coli = assay: Agar well diffusion method; settings: for % activity index, E. coli: relative to ciprofloxacin
Candida albicans = assay: Agar well diffusion method; settings: for % activity index, C. albicans: relative to clotrimazole
Aspergillus flavus = assay: Agar well diffusion method; settings: for zone of inhibition at 1000 µg/mL: Aspergillus flavus, 24 h, read-out: Diameter of inhibition zone, A. flavus; for % activity index, A. flavus: relative to clotrimazole
S. aureus = assay: MIC, two-fold microbroth dilution method; settings: Staphylococcus aureus, read-out: MIC (µg/mL) S. aureus
B. subtilis = assay: MIC, two-fold microbroth dilution method; settings: Bacillus subtilis, read-out: MIC (µg/mL) B. subtilis
E. coli = assay: MIC, two-fold microbroth dilution method; settings: Escherichia coli, read-out: MIC (µg/mL) E. coli
P. aeruginosa = assay: MIC, two-fold microbroth dilution method; settings: Pseudomonas aeruginosa, read-out: MIC (µg/mL) P. aeruginosa
C. albicans = assay: MIC, two-fold microbroth dilution method; settings: Candida albicans, read-out: MIC (µg/mL) C. albicans
A. flavus = assay: MIC, two-fold microbroth dilution method; settings: Aspergillus flavus, read-out: MIC (µg/mL) A. flavus

HER-2, sequence (P04626 23-1255): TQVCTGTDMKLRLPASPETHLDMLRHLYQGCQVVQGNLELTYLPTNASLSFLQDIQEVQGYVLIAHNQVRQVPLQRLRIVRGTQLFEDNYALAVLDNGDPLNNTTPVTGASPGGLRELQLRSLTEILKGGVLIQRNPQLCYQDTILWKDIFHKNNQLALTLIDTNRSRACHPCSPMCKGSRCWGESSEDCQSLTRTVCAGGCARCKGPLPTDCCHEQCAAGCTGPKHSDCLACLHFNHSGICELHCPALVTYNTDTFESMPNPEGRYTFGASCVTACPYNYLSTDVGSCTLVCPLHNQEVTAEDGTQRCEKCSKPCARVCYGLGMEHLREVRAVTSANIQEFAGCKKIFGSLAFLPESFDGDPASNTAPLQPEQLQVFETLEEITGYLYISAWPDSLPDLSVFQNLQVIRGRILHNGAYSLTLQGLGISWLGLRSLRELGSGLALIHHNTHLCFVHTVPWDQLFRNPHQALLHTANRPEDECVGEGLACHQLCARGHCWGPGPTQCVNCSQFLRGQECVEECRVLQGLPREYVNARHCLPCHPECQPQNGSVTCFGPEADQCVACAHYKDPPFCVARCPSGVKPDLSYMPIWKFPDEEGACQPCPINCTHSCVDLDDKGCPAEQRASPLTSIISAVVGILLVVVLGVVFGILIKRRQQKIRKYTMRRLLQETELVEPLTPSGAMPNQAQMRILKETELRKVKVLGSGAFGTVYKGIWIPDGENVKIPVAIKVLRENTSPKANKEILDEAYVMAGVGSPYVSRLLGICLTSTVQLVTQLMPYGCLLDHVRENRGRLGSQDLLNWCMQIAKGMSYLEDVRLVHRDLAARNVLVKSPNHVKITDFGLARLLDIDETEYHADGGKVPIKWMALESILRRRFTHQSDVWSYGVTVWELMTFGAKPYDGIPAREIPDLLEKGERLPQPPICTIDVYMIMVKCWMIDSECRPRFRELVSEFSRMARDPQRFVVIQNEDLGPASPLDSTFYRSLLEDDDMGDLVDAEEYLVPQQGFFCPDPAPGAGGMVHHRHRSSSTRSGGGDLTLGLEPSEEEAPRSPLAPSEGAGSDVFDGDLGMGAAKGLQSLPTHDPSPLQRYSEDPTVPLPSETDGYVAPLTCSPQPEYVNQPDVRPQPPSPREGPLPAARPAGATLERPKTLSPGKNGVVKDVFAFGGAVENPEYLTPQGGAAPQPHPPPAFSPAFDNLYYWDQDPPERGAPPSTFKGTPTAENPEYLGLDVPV
EGFR, sequence (P00533 25-1210): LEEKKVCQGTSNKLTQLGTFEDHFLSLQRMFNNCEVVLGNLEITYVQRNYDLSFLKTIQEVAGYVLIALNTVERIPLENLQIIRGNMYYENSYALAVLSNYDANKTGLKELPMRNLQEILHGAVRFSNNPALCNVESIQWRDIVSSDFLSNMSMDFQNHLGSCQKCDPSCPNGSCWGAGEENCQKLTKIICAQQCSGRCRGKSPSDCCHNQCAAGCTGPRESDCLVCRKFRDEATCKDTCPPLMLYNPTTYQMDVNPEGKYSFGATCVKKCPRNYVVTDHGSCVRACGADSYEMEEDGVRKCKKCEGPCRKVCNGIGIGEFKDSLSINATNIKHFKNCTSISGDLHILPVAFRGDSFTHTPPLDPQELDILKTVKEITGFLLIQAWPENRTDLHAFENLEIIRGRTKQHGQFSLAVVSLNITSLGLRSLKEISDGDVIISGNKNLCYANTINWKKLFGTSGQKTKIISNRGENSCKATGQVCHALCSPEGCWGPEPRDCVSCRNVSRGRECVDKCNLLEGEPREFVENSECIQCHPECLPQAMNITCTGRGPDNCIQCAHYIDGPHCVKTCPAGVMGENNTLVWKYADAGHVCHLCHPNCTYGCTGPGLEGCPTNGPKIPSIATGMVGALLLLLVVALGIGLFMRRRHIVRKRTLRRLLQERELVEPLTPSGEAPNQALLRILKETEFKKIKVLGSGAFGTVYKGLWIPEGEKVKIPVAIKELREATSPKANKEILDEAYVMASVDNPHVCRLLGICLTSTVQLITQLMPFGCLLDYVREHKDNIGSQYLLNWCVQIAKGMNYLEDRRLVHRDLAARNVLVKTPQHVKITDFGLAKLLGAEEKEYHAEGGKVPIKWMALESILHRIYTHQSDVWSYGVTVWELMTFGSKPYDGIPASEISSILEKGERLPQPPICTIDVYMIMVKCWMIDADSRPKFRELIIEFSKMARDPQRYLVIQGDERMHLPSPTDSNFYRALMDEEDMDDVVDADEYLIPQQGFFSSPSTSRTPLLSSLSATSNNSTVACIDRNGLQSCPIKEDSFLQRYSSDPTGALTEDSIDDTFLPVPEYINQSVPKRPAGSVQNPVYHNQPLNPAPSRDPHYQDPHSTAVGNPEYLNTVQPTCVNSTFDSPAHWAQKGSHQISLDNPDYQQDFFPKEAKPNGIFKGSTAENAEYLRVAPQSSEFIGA
BTK, sequence (Q06187 whole entry): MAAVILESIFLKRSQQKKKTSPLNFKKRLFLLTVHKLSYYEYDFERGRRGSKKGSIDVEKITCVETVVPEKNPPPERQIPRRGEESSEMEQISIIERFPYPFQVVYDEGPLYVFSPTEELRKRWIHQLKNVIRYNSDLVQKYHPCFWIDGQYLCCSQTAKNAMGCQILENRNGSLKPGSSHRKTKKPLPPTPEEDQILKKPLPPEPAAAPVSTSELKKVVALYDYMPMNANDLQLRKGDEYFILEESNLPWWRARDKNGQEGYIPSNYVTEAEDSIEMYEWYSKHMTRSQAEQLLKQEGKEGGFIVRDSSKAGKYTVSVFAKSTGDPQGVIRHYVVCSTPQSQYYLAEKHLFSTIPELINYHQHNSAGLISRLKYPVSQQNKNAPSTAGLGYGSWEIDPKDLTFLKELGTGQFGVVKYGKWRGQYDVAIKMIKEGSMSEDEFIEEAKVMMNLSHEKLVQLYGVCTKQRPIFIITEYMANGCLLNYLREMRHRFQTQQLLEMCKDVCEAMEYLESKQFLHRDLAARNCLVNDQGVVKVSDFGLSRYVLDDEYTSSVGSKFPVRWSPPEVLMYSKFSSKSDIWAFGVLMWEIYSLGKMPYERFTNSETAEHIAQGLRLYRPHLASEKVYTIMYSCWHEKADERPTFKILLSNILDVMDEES

SMILES: COC(=O)C1=C(C)NC(C)=C(C(=O)OCc2ccccc2)C1c1cccc(C#N)c1 (racemic) [Compound 2e, (±)-3-Benzyl 5-methyl 4-(3-cyanophenyl)-2,6-dimethyl-1,4-dihydropyridine-3,5-dicarboxylate]
- GI% NCI-H226 (NCI-H226): 31%
- GI% HT29 (HT29): 31%
- GI% KM12 (KM12): 39%
- GI% SK-MEL-2 (SK-MEL-2): – (Only GI% ≥ 10 are shown)
- GI% SK-MEL-5 (SK-MEL-5): 37%
- GI% IGROV1 (IGROV1): 36%
- GI% OVCAR-5 (OVCAR-5): 21%
- GI% ACHN (ACHN): 28%
- GI% CAKI-1 (CAKI-1): 27%
- GI% TK-10 (TK-10): – (Only GI% ≥ 10 are shown)
- GI% HS578T (HS578T): 28%
- RF (reversal fold activity) [1]: 7.68
- EGFR Potency (EGFR): 67.68%
- IC50 (EGFR): 80.4 ± 1.26 nM
- HER-2 Potency (HER-2): 95.13%
- IC50 (HER-2): 76.5 ± 0.87 nM
- BTK Potency (BTK): 74.91%
- IC50 (BTK): 82.1 ± 1.4 nM
- early apoptosis ratio (lower-right quadrant) (HCT-116 cells [2]): 4.37–6.17%
- late apoptosis ratio (upper-right quadrant) (HCT-116 cells [2]): 9.45–11.28%
- %G0-G1 (HCT-116 cells [3]): 39.17–43.25%
- %G2-M (HCT-116 cells [3]): 26.03–31.84%
- %Pre-G1 (HCT-116 cells [3]): 15.57–19.36%
- IC50 (HCT-116/ADR cells): 29400 ± 450 nM
- IC50 (HCT-116 cells [4]): 1270 ± 420 nM
- % activity index, E. coli (Escherichia coli): – (Values below 25 are of limited value and not shown as they refer either to inactive or non-diffusing compounds)
- % activity index, C. albicans (Candida albicans): – (Values below 25 are of limited value and not shown as they refer either to inactive or non-diffusing compounds)
- zone of inhibition at 1000 µg/mL (Aspergillus flavus): 10 mm
- % activity index, A. flavus (Aspergillus flavus): 40%

SMILES: CCOC(=O)C1=C(C)NC(C)=C(C(=O)OCc2ccccc2)C1c1cccc(C#N)c1 (racemic) [Compound 2l, (±)-3- Benzyl 5-ethyl 4-(3-cyanophenyl)-2,6-dimethyl-1,4-dihydropyridine-3,5-dicarboxylate]
- GI% NCI-H226 (NCI-H226): 41%
- GI% HT29 (HT29): 88%
- GI% KM12 (KM12): 74%
- GI% SK-MEL-2 (SK-MEL-2): 75%
- GI% SK-MEL-5 (SK-MEL-5): 45%
- GI% IGROV1 (IGROV1): 57%
- GI% OVCAR-5 (OVCAR-5): 38%
- GI% ACHN (ACHN): 52%
- GI% CAKI-1 (CAKI-1): 67%
- GI% TK-10 (TK-10): 16%
- GI% HS578T (HS578T): 59%
- RF (reversal fold activity) [1]: 10.05
- EGFR Potency (EGFR): 72.29%
- IC50 (EGFR): 75.2 ± 0.95 nM
- HER-2 Potency (HER-2): 89.10%
- IC50 (HER-2): 81.7 ± 0.92 nM
- BTK Potency (BTK): 96.35%
- IC50 (BTK): 63.8 ± 0.55 nM
- early apoptosis ratio (lower-right quadrant) (HCT-116 cells [2]): 4.37–6.17%
- late apoptosis ratio (upper-right quadrant) (HCT-116 cells [2]): 9.45–11.28%
- %G0-G1 (HCT-116 cells [3]): 39.17–43.25%
- %G2-M (HCT-116 cells [3]): 26.03–31.84%
- %Pre-G1 (HCT-116 cells [3]): 15.57–19.36%
- IC50 (HCT-116/ADR cells): 15830 ± 130 nM
- IC50 (HCT-116 cells [4]): 1110 ± 450 nM
- % activity index, E. coli (Escherichia coli): – (Values below 25 are of limited value and not shown as they refer either to inactive or non-diffusing compounds)
- % activity index, C. albicans (Candida albicans): – (Values below 25 are of limited value and not shown as they refer either to inactive or non-diffusing compounds)
- % activity index, A. flavus (Aspergillus flavus): – (Values below 25 are of limited value and not shown as they refer either to inactive or non-diffusing compounds)

SMILES: CC1=C(C(=O)OCc2ccccc2)C(c2cccc(C#N)c2)C(C(=O)OCc2ccccc2)=C(C)N1 [Compound 1g, Dibenzyl 4-(3-cyanophenyl)-2,6-dimethyl-1,4-dihydropyridine-3,5-dicarboxylate]
- GI% NCI-H226 (NCI-H226): 46%
- GI% HT29 (HT29): 48%
- GI% KM12 (KM12): 45%
- GI% SK-MEL-2 (SK-MEL-2): 19%
- GI% SK-MEL-5 (SK-MEL-5): 55%
- GI% IGROV1 (IGROV1): 45%
- GI% OVCAR-5 (OVCAR-5): 19%
- GI% ACHN (ACHN): 52%
- GI% CAKI-1 (CAKI-1): 56%
- GI% TK-10 (TK-10): – (Only GI% ≥ 10 are shown)
- GI% HS578T (HS578T): 35%
- RF (reversal fold activity) [1]: 23.48
- EGFR Potency (EGFR): 87.44%
- IC50 (EGFR): 62.2 ± 0.76 nM
- HER-2 Potency (HER-2): 103.20%
- IC50 (HER-2): 70.55 ± 0.63 nM
- BTK Potency (BTK): 101.99%
- IC50 (BTK): 60.27 ± 0.42 nM
- early apoptosis ratio (lower-right quadrant) (HCT-116 cells [2]): 4.37–6.17%
- late apoptosis ratio (upper-right quadrant) (HCT-116 cells [2]): 9.45–11.28%
- %G0-G1 (HCT-116 cells [3]): 39.17–43.25%
- %G2-M (HCT-116 cells [3]): 26.03–31.84%
- %Pre-G1 (HCT-116 cells [3]): 15.57–19.36%
- IC50 (HCT-116/ADR cells): 10610 ± 100 nM
- IC50 (HCT-116 cells [4]): 990 ± 580 nM
- zone of inhibition at 1000 µg/mL (Escherichia coli; Escherichia coli, 24 h, read-out: Diameter of inhibition zone, E. coli): 10 mm
- % activity index, E. coli (Escherichia coli): 38.5%
- zone of inhibition at 1000 µg/mL (Candida albicans; Candida albicans, 24 h, read-out: Diameter of inhibition zone, C. albicans): 10 mm
- % activity index, C. albicans (Candida albicans): 37%
- zone of inhibition at 1000 µg/mL (Aspergillus flavus): 14 mm
- % activity index, A. flavus (Aspergillus flavus): 56%
- MIC (S. aureus): 64 µg/mL (≈ 134 µM)
- MIC (B. subtilis): 32 µg/mL (≈ 66.9 µM)
- MIC (E. coli): 32 µg/mL (≈ 66.9 µM)
- MIC (P. aeruginosa): 32 µg/mL (≈ 66.9 µM)
- MIC (C. albicans): 64 µg/mL (≈ 134 µM)
- MIC (A. flavus): > 64 µg/mL
